Measurements reported in patent US10590082B2, “N-(5-((aryl or heteroaryl)methyloxy)pentyl)-substituted iminosugars as inhibitors of glucosylceramide synthase” (Academisch Medisch Centrum, priority 2014, dated 2020).
Like-named read-outs stand apart in the source and are kept apart here.

Tests used:
[1] = target: T1, glucosylceramide synthase (GCS) (Mus musculus, UniProt O88693); test: GCS activity in living macrophage  cells (C6-NBD lipid, TLC readout); format: cell-based; conditions: read-out: GCS [nM] (IC50)
T1 construct: IC50 values for GCS activity were measured using living cells; endogenous in cells
T1 sequence (O88693 1-394): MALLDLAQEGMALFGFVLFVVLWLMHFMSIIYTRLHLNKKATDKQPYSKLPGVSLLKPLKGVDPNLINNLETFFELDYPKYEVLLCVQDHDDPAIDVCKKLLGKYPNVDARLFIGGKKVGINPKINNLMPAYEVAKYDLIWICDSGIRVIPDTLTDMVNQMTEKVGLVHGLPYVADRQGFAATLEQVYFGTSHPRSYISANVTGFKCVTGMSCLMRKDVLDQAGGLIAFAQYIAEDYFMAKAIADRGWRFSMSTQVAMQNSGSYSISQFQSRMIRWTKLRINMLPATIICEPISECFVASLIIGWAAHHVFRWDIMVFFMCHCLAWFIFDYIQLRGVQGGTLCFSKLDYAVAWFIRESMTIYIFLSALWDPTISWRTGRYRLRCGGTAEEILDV

GBA1 = target: T2, GBA1 (Homo sapiens, UniProt P04062, R534H); test: GBA1 activity, recombinant human enzyme (Cerezyme), 4-MU-β-glucoside substrate; format: biochemical;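 further: enzyme activity read out as fluorescence of the 4-MU released from the substrate, measured on a fluorimeter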
T2 construct: purchased Sanofi (Cerezyme)
T2 sequence (P04062 40-536 R534H): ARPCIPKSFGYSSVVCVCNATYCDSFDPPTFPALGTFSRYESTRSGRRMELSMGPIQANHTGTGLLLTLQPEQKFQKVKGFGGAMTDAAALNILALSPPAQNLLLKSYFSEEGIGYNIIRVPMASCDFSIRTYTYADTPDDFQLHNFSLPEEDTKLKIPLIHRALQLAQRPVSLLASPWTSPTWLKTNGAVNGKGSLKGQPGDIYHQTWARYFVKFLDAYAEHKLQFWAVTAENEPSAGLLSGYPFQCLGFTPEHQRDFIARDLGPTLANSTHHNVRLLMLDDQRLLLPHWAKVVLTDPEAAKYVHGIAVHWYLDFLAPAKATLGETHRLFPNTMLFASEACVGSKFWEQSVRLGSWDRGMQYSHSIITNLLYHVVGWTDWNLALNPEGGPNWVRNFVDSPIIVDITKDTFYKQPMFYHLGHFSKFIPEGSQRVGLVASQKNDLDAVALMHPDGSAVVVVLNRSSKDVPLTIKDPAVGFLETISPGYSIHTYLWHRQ

GBA2 = target: T3, GBA2 (Homo sapiens, UniProt Q9HCG7); test: GBA2 activity, membrane fraction from Gaucher spleen, 4-MU-β-glucoside substrate; format: biochemical;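 further: Read-out is fluorimetric quantification of released 4-MU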
T3 construct: measured using a membrane fraction obtained from Gaucher spleen; from tissue; host or cells: membrane fraction of Gaucher spleen, pre-treated with conduritol B-epoxide
T3 sequence (Q9HCG7 1-927): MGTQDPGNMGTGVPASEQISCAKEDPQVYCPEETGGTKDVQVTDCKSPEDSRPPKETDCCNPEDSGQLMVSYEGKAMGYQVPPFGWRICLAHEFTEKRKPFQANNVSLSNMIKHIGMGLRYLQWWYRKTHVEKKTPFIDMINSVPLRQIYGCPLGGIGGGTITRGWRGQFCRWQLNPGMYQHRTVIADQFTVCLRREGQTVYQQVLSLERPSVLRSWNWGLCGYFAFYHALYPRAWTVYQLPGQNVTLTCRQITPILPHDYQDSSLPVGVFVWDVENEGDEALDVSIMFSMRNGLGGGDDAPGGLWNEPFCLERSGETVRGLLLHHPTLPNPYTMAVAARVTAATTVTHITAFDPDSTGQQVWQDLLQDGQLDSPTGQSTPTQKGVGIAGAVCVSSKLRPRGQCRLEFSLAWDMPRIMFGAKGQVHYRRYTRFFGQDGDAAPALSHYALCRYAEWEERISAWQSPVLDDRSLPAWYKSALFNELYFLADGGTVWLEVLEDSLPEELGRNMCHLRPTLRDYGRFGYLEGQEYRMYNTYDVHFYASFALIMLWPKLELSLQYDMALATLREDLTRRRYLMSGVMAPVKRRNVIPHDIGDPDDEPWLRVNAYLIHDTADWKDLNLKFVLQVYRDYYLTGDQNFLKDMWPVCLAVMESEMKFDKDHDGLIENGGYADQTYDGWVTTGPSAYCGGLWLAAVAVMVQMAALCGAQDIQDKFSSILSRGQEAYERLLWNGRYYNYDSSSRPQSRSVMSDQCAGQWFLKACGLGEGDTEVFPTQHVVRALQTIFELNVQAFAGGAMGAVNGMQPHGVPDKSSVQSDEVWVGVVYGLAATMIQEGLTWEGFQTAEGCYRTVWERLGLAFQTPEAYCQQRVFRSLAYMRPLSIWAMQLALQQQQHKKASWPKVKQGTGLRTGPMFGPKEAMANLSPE

intestinal glycosidases = conditions: background statement; cited from earlier work
[2] = D-gluco configuration series, Example 3
[3] = L-ido configuration series, Example 4

SMILES	IC50 [1] [nM]	IC50 (GBA1) [nM]	IC50 (GBA2; [2]) [nM]	IC50 [1, 2] [nM]	IC50 (GBA2; [3]) [nM]	IC50 (GBA2) [nM]	inhibitory activity against the intestinal glycosidases (intestinal glycosidases)
OC[C@@H]1[C@@H](O)[C@H](O)[C@@H](O)CN1CCCCCOCc1ccc(-c2cccnc2)cc1 [Compound 17]	200	3000	10	–	–	–	–
Cc1ccccc1-c1ccc(COCCCCCN2C[C@H](O)[C@@H](O)[C@H](O)[C@H]2CO)cc1 [Compound 34]	–	70	0.5	25	–	–	–
OC[C@H]1[C@@H](O)[C@H](O)[C@@H](O)CN1CCCC(F)(F)COCc1ccc(-c2ccccc2)cc1 [Compound 43]	15	12500	–	–	2	–	–
OC[C@@H]1[C@@H](O)[C@H](O)[C@@H](O)CN1CCCCCOCc1ccc(-c2ccccc2)cn1 [Compound 12]	200	1500	3	–	–	–	–
OC[C@@H]1[C@@H](O)[C@H](O)[C@@H](O)CN1CCCCCOCc1ccc(-c2ccccc2F)cc1 [Compound 25]	74	600	2	–	–	–	–
Cc1ccc(-c2ccc(COCCCCCN3C[C@H](O)[C@@H](O)[C@H](O)[C@H]3CO)cc2)cc1 [Compound 36]	100	250	3	–	–	–	–
OC[C@@H]1[C@@H](O)[C@H](O)[C@@H](O)CN1CCCC(F)(F)COCc1ccc(-c2ccccc2)cc1 [Compound 10]	15	12500	–	–	–	2	–
OC[C@H]1[C@@H](O)[C@H](O)[C@@H](O)CN1CCCCCOCc1ccc(-c2ccccc2)cc1C(F)(F)F [Compound 44]	3	5000	–	–	0.1	–	–
OC[C@@H]1[C@@H](O)[C@H](O)[C@@H](O)CN1CCCCCOCc1ccc(-c2cccc(F)c2)cc1 [Compound 26]	25	250	–	–	–	2	–
OC[C@@H]1[C@@H](O)[C@H](O)[C@@H](O)CN1CCCCCOCc1ccccc1-c1ccccc1 [Compound 14]	50	1250	3	–	–	–	–
OC[C@@H]1[C@@H](O)[C@H](O)[C@@H](O)CN1CCCCCOCc1ccc(-c2ccc(F)cc2)cc1 [Compound 27]	25	400	1	–	–	–	–
OC[C@@H]1[C@@H](O)[C@H](O)[C@@H](O)CN1CCCCCOCc1ccc(-c2ccc3c(c2)OCCCO3)cc1 [Compound 19]	25	3000	–	–	–	10	–
OC[C@H]1[C@@H](O)[C@H](O)[C@@H](O)CN1CCCCCOCc1ccc(-c2ccccc2)cc1F [Compound 46]	5	8000	–	–	0.4	–	–
OC[C@@H]1[C@@H](O)[C@H](O)[C@@H](O)CN1CCCCCOCc1ccc(-c2ccc3c(c2)OCCO3)cc1 [Compound 20]	25	3000	–	–	–	10	–
OC[C@@H]1[C@@H](O)[C@H](O)[C@@H](O)CN1CCCCCOCc1cccc(-c2ccccc2)c1 [Compound 13]	75	300	2	–	–	–	–
OC[C@@H]1[C@@H](O)[C@H](O)[C@@H](O)CN1CCCCCOCc1ccc(-c2ccc(F)nc2)cc1 [Compound 15]	750	3000	5	–	–	–	–
OC[C@H]1[C@@H](O)[C@H](O)[C@@H](O)CN1CCCCCOCc1ccccc1-c1ccccc1 [Compound 40]	25	15000	–	–	3	–	–
N#Cc1ccc(-c2ccc(COCCCCCN3C[C@H](O)[C@@H](O)[C@H](O)[C@H]3CO)cc2)cc1 [Compound 30]	150	350	3	–	–	–	–
OC[C@H]1[C@@H](O)[C@H](O)[C@@H](O)CN1CCCCCOCc1ccc(-c2ccccc2)c(F)c1 [Compound 47]	2.5	6000	–	–	0.6	–	–
OC[C@@H]1[C@@H](O)[C@H](O)[C@@H](O)CN1CCCCCOCc1ccc(-c2cc(C(F)(F)F)cc(C(F)(F)F)c2)cc1 [Compound 22]	20	800	15	–	–	–	–
N#Cc1ccccc1-c1ccc(COCCCCCN2C[C@H](O)[C@@H](O)[C@H](O)[C@H]2CO)cc1 [Compound 28]	150	600	5	–	–	–	–
COc1ccc(-c2ccc(COCCCCCN3C[C@H](O)[C@@H](O)[C@H](O)[C@H]3CO)cc2)cc1 [Compound 33]	25	2500	10	–	–	–	–
OC[C@H]1[C@@H](O)[C@H](O)[C@@H](O)CN1CCCCCOCC12CC3CC(CC(C3)C1)C2 [Compound 2, (adamantanemethyloxypentyl)-L-ido-deoxynojirimycin]	–	–	–	–	–	–	little to no inhibitory activity
